Reference: ChEMBL document CHEMBL4152297, “Ligand-selective small molecule modulators of the constitutively active vGPCR US28” (Eur J Med Chem, 2018)
Activity calls are given as the source filed them. The rule behind the calls is not given here.

What was measured:
HEK293 [1] = assay: Displacement of [125I]-CX3CL1 from HCMV US28 expressed in HEK293 cells at 10 uM after 3 hrs by gamma counting method relative to control; type: cell-based; conditions: Human betaherpesvirus 5
HEK293 [2] = assay: Displacement of [125I]-CCL2 from HCMV US28 expressed in HEK293 cells at 10 uM after 3 hrs by gamma counting method relative to control; type: cell-based; conditions: Human betaherpesvirus 5
[3] = Modulation of basal activity of HCMV US28 delta300 mutant expressed in tetracyclin-induced HEK293 cells assessed as change in inositol phosphate accumulation using [3H]-myo-inositol by scintillation proximity assay; type: cell-based; conditions: Human betaherpesvirus 5, HEK293
HEK293 [4] = assay: Modulation of basal activity of HCMV US28 delta300 mutant expressed in tetracyclin-induced HEK293 cells assessed as change in inositol phosphate accumulation at 10 uM using [3H]-myo-inositol by scintillation proximity assay relative to control; type: cell-based; conditions: Human betaherpesvirus 5
HEK293 [5] = assay: Modulation of basal activity of HCMV US28 expressed in tetracyclin-induced HEK293 cells assessed as change in inositol phosphate accumulation at 10 uM using [3H]-myo-inositol by scintillation proximity assay relative to control; type: cell-based; conditions: Human betaherpesvirus 5
[6] = Agonist activity at HCMV US28 expressed in African green monkey COS7 cells assessed as increase in inositol phosphate accumulation using [3H]-myo-inositol after 90 mins by scintillation proximity assay; type: cell-based; conditions: Human betaherpesvirus 5, COS-7
[7] = Modulation of basal activity of HCMV US28 expressed in tetracyclin-induced HEK293 cells assessed as change in inositol phosphate accumulation using [3H]-myo-inositol by scintillation proximity assay; type: cell-based; conditions: Human betaherpesvirus 5, HEK293
[8] = Displacement of [125I]-CCL2 from HCMV US28 expressed in HEK293 cells after 3 hrs by gamma counting method; type: cell-based, Human betaherpesvirus 5
HEK293 [9] = assay: Effect on inositol phosphate accumulation in HEK293 cells at 10 uM using [3H]-myo-inositol by scintillation proximity assay; type: cell-based; conditions: human, hek293, 10 µM

EC50 ([7]; read-out: EC50) [nM]	EC50 ([7]; read-out: pEC50 (converted)) [nM]	SMILES	EC50 ([3]; read-out: EC50) [nM]	EC50 ([3]; read-out: pEC50 (converted)) [nM]	Efficacy (HEK293 [4]) [%]	Efficacy (HEK293 [5]) [%]	Efficacy (HEK293 [2]) [%]	further results
–	–	Cc1sc2nc(CN3CCN(CC(=O)NC4CCC(C)CC4)CC3)[nH]c(=O)c2c1C (stereo unspecified)	1560	1580	118	–	–	inhibition (HEK293 [1]): 32%; inhibition (HEK293 [2]): Active
–	–	Cc1ncc(CN2CCN(CC(=O)Nc3ccc(F)cc3)CC2)s1	–	–	–	-20	–	–
–	–	O=C(CN1CCN(Cc2nc3ccccc3[nH]2)CC1)Nc1ccc(F)cc1F	–	–	–	–	-7	–
–	–	CNC(=O)NC(=O)CN1CCC(Cn2c(C)nc3ccccc32)CC1	–	–	–	–	0	–
–	–	O=C(CN1CCN(CC2CCCCC2)CC1)Nc1ccc(F)cc1	–	–	–	-15	–	–
–	–	CC(=O)c1ccc(N2CCN(Cc3nc4scc(-c5ccccc5)c4c(=O)[nH]3)CC2)cc1	–	–	–	–	–	EC50 [6]: 950 nM
19100	20000	O=C(CN1CCN(Cc2nc(-c3cccc(C(F)(F)F)c3)no2)CC1)NC1CCCCC1	–	–	–	-23	–	–
–	–	O=C(CN1CCC(Cn2cnc3ccccc32)CC1)Nc1ccccn1	–	–	–	–	10	–
–	–	Cc1nc2ccccc2n1CC1CCN(Cc2ccc(F)c(F)c2)CC1	1480	1580	93	–	46	IC50 [8]: 5260 nM; pIC50 [8]: 5.28
67	63.1	N#Cc1c(CN2CCN(CC(=O)Nc3ccccc3Cl)CC2)cn2ccccc12	–	–	–	-15	–	–
–	–	O=C(CN1CCC(Cn2cnc3ccccc32)CC1)Nc1nc2ccc(F)cc2s1	–	–	–	–	20	IC50 [8]: > 10000 nM
–	–	NC(=O)c1ccc(NC(=O)CN2CCC(Cn3c(COc4ccccc4)nc4ccccc43)CC2)cc1	7960	7940	77	–	–	–
–	–	Cc1ccc2nc(CN3CCN(CC(=O)Nc4ccc(F)cc4)CC3)cc(=O)n2c1	–	–	–	-10	–	–
–	–	Cc1cc2ncn(CC3CCN(CC(=O)Nc4ccc5c(c4)OCO5)CC3)c2cc1C	1520	1580	58	–	–	–
89	100	NC(=O)c1c(NC(=O)CN2CCN(Cc3ccc4c(c3)OCO4)CC2)sc2c1CCCC2	–	–	–	-31	–	–
3840	3980	CC(C(=O)Nc1sccc1C(N)=O)N1CCN(Cc2nc3ccccc3s2)CC1 (stereo unspecified)	–	–	–	-46	–	–
1800	2000	COc1ccc(-c2csc(NC(=O)CN3CCN(Cc4ccc5c(c4)OCO5)CC3)n2)cc1	–	–	–	-30	–	–

SMILES	EC50 ([7]; read-out: EC50) [nM]	EC50 ([7]; read-out: pEC50 (converted)) [nM]	EC50 ([3]; read-out: EC50) [nM]	EC50 ([3]; read-out: pEC50 (converted)) [nM]	Efficacy (HEK293 [4]) [%]	Efficacy (HEK293 [5]) [%]	Efficacy (HEK293 [2]) [%]	further results
Cn1c(CN2CCN(CC(=O)Nc3ccc(F)cc3F)CC2)nc2ccccc21	133	126	9880	10000	75	-15	6	–
O=C(CN1CCN(Cc2nc(-c3ccc(F)cc3)no2)CC1)Nc1ccc(F)cc1	3040	3020 to 3160	1140	1260	-23	-54	–	Activity (HEK293 [9]): Toxic
Cc1nc2ccccc2n1CC1CCN(CC(=O)Nc2ccc(OC(F)(F)F)cc2)CC1	269	251	103	100	86	26	78	inhibition (HEK293 [1]): 32%; IC50 [8]: 2110 nM; pIC50 [8]: 5.68
O=C(CN1CCN(Cc2cccc3ccccc23)CC1)Nc1ccc2c(c1)OCO2	39	39.8	> 10000	< 10000	53	-24	–	–
